Among the data in the NIST ThermoML archive (doi:10.1007/s10765-015-1922-3) are mass density, Normal boiling temperature and refractive index values, retold here.

Structures are written as SMILES. Numbers after ± are expanded uncertainties.

The conditions of data set [1]: Liquid; for mass density: 298.15 K, 101.33 kPa, Vibrating tube method; for Normal boiling temperature: Ebulliometric method (Recirculating still).
Data set [2] can be described thus: refractive index (Na D-line) (dimensionless). The following applies: 298.15 K; 101.33 kPa; Liquid; Standard Abbe refractometry.

One may read the mass density as the mass of a sample divided by its volume. The refractive index is the speed of light in vacuum divided by its phase velocity in the sample. Consider `c1ccccc1` [benzene], for which, in data set [1], the mass density is given as 873.6 ± 0.16 kg/m3 and the Normal boiling temperature worked out at 80.01 ± 0.2 °C. The refractive index in data set [2] was 1.49692 ± 0.00073.
Consider `C1CCCCC1` [cyclohexane], for which, in data set [1], the mass density came to 773.7 ± 0.2 kg/m3 and the Normal boiling temperature worked out at 80.64 ± 0.2 °C. Further, the refractive index in data set [2] worked out at 1.4232 ± 0.00073.
`CCCO` [propan-1-ol]: in data set [1], the mass density worked out at 799.51 ± 0.31 kg/m3 and the Normal boiling temperature worked out at 97.2 ± 0.2 °C. Besides, in data set [2], the refractive index is 1.38305 ± 0.00075.
